In assay [1] the test system is Mamestra brassicae larvae. Briefly: Injection bioassay with Mamestra brassicae larvae. It is filed as in vivo. The settings on record: injection at up to 40 μg/insect. The protocol:
3rd-5th instar Mamestra brassicae larvae (approximately 30-55 mg in weight) were used for injection bioassays. Larvae were injected with varying doses of Hv1a, pro-Hv1a, pro-Hv1a/GNA, PI1a, Ao1bProPI1a, PI1a/GNA, Ao1bPro-PI1a/GNA, or Hv1aPro-PI1a/GNA (n=20 per dose) in 5 μl of PBS (phosphate buffered saline; 0.15 M NaCl, 0.015 M sodium-phosphate buffer, pH 7.2). Larvae for controls were injected with 5 μl 1×PBS. Paralysis and mortality was recorded 12-96 h after injection.

In assay [2] the test system is Mamestra brassicae larvae. Put plainly: Droplet-feeding (oral) assay with Mamestra brassicae larvae. The format is in vivo. Here is the method: Droplet-feeding assays were carried out to assess the oral activity of Hv1a/GNA, pro-Hv1a/GNA, PI1a, Ao1bProPI1a, PI1a/GNA, Ao1bPro-PI1a/GNA, or Hv1aPro-PI1a/GNA towards third to fifth instar larvae of M. brassicae. Larvae were starved for approximately 24 h before feeding in order to encourage droplet consumption. Larvae were fed with a 2 μl droplet containing 20 μg of the above fusion proteins, 30 μg of toxins or 30 μg of GNA, in 1×PBS solution containing 10% sucrose (w/w). Control larvae were fed on PBS/sucrose droplets containing no added protein. Treated larvae were placed on standard artificial diet after consumption of the droplet.

The next assay deals with Spodoptera sp. The settings on record: native PI1a, literature value; cited from earlier work.
Assay [3] concerns invertebrate calcium channels. The settings on record: cited from earlier work.
The test system of assay [4] is vertebrate calcium channels. The settings on record: cited from earlier work.

Regarding snowdrop lectin (GNA), the mortality result in assay [1] was “do not result in mortality”. Further, in assay [2] (30 μg control treatments, 3rd stadium), the reductions in survival was 0-20%. Besides, the “mortality after 5 days” value in assay [2] (single 2 μl droplet containing 20 μg, third instar) came out at 20%.
Consider “δ-amaurobitoxin-PI1a [Pl1a (literature)]”, for which the LD50 with Spodoptera sp. is 9.5 µg/g.
On to ω-ACTX-Hv1a [Hv1a (literature)], for which, in assay [3], the “block of invertebrate calcium channels” value is “block invertebrate”. Also, in assay [4], the “block of vertebrate calcium channels” value is recorded as “not vertebrate”.

The values are drawn from patent US11198711B2 (priority 2013, dated 2021).
